Results reported in ChEMBL document CHEMBL5154887, “Novel CRBN-Recruiting Proteolysis-Targeting Chimeras as Degraders of Stimulator of Interferon Genes with In Vivo Anti-Inflammatory Efficacy” (J Med Chem, 2022).

Key:
[1] = molecular target: T1, Protein cereblon/Stimulator of interferon genes protein (Homo sapiens, UniProt Q96SW2+Q86WV6); assay: Protac activity at CRBN/STING in human THP-1 cells assessed as increase in STING degradation at 10 uM incubated for 48 hrs by Western blot analysis relative to control; format: cell-based
Target sequence in this assay (Q86WV6 whole entry, looked up): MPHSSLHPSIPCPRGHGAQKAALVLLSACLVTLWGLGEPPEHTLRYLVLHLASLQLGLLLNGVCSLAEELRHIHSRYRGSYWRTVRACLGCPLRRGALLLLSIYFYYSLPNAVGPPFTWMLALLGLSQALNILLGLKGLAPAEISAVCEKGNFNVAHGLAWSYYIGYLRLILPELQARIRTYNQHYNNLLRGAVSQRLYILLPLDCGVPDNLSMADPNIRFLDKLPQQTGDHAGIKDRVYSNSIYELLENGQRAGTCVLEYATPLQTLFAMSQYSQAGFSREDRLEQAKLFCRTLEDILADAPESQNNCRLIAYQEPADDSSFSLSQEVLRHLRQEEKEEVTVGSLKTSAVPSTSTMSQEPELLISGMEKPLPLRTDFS
Target sequence in this assay (Q96SW2 whole entry, looked up): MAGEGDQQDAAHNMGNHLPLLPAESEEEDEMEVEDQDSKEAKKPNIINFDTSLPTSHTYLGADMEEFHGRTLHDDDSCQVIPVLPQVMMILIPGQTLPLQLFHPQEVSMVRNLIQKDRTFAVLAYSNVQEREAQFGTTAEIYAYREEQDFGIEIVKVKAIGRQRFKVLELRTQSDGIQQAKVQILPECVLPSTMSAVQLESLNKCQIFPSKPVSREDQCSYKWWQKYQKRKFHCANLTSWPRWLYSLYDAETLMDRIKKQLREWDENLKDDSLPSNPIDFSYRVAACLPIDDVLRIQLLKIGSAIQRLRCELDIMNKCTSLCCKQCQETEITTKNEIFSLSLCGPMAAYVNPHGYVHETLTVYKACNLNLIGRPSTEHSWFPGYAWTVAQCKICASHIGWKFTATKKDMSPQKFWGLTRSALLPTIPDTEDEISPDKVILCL

[2] = Cytotoxicity against HEK293-A cells assessed as reduction in cell viability at <10 uM by MTT assay; format: toxicity, cell-based; conditions: human
[3] = molecular target: T1, Protein cereblon/Stimulator of interferon genes protein; assay: Protac activity at CRBN/STING in human THP-1 cells assessed as increase in STING degradation incubated for 48 hrs by Western blot analysis; format: cell-based
Target sequence in this assay (Q96SW2 whole entry): as the sequence (Q96SW2 whole entry, looked up) above
Target sequence in this assay (Q86WV6 whole entry): as the sequence (Q86WV6 whole entry, looked up) above

L02 = assay: Cytotoxicity against human L02 cells assessed as reduction in cell viability at <10 uM by MTT assay; format: toxicity, cell-based; conditions: l02, 10 µM
[4] = Cytotoxicity against mouse C17.2 cells assessed as reduction in cell viability at <10 uM by MTT assay; format: toxicity, cell-based; conditions: c17.2, 10 µM

Activity [1]: 62% | DC50 [3]: 9.2 µM
SMILES: O=C(/C=C/C(=O)Nc1ccc(NC(=O)c2ccc([N+](=O)[O-])o2)cc1)NCCCCCNc1cccc2c1C(=O)N(C1CCC(=O)NC1=O)C2=O (stereo not given)
Activity [2]: Non-Toxic | Activity (L02): Non-Toxic | Activity [4]: Non-Toxic
